# According to a melting point compilation (Tetko et al.; mined from patent text by program, amines drawn as free bases though some values may be those of a salt):
row,Compound,melting point [°C]
1,CSc1ncc(Sc2nc(C)c(CC(=O)O)s2)c(C(=O)O)n1,238 to 239
2,CN1CCN(CCOc2ccccc2CC(=O)N2C[C@@H]3C(=O)CCC(c4ccccc4)(c4ccccc4)[C@@H]3C2)CC1 (racemic),78
3,C1CCc2c(c(N3CCCC3)nn3nnnc23)C1,272 to 273
4,NC(=O)Cc1csc(-c2cccc(Br)c2)n1,150 to 152
5,O=[N+]([O-])c1cnc2cc(Cl)ccc2c1O,> 300
6,O=c1n(CCCF)nnn1-c1cc(Oc2ccc([N+](=O)[O-])cc2)c(Cl)cc1F,109 to 110
7,Oc1ccc(CCc2ccc(O)cc2)cc1,199 to 200
8,CCOC(=O)c1cn(C(C)(C)C)c2nc(SCC)c(F)cc2c1=O,159 to 160
9,COc1ccc(-n2nc(NC(=O)N(C)C)cc2-c2ccc(OCCO)cc2)cc1,167 to 168
10,CCCCCCC(C(=O)O)N1NCc2cc(-c3ccccc3-c3nn[nH]n3)ccc21 (configuration not stated),105 to 110
11,CCCCNC(=O)C1CCCCC1(O)C(=O)c1ccc(OC)cc1 (configuration not stated),94 to 95
12,CC(CCc1ccc(Cl)cc1)(Cn1ccnc1)Sc1cc(Cl)ccc1Cl (configuration not stated),150
13,Cc1ccc(C#N)nc1,72 to 74
14,COc1cc2c(c([N+](=O)[O-])c1)NCCC2=O,161 to 162
15,O=C1CCNc2c([N+](=O)[O-])cc(Cl)c(Cl)c21,175 to 176
16,Cc1noc(NC(=O)N2CCN(c3cc(-c4cccc(F)c4F)ncn3)CC2)c1C,210 to 211
17,CN(C)Cc1ncc2c(c1O)COC2(c1ccccc1)c1ccc(F)cc1 (configuration not stated),184
18,COC(=O)c1cccc(/C=C/c2cc3ccccc3o2)c1,98 to 100
19,Cc1ccccc1-c1c(NC(=O)Nc2ccc(F)cc2F)c(=O)oc2ccc(C(C)C)cc12,199 to 200
20,CCCc1ccnc2c(=O)[nH]c(-c3cc(S(=O)(=O)N4CCC(C(=O)OCC)CC4)ccc3OCC)nc12,204 to 205
21,COC1=CC[C@H]2[C@@H]3CCc4cc(OC)ccc4[C@H]3CC[C@]12C,90.5 to 93
22,COCCO[C@@H]1c2ccn3c(C)c(C)nc3c2N[C@H](c2ccccc2)[C@H]1OC(=O)CCCCBr,98.6
23,CCCCCCCCCCCCCCCCCCOc1cc(C(=O)OC)cc(N(CC(=O)O)CC(=O)O)c1,119 to 123
24,Cc1onc(-c2ccccc2)c1-c1ccc(S(=O)(=O)NC(=O)CN)cc1,231 to 235
25,CCOC(=O)C(CC(=S)c1ccc(-c2ccccc2)cc1)SC(C)=O (configuration not stated),71.5 to 72.5

row,Compound,melting point [°C]
1,COC(=O)c1cc([N+](=O)[O-])ccc1F,52 to 53
2,CCN(C(=O)Nc1ccccc1)c1cccc(-c2ccc(CC3SC(=O)NC3=O)cc2)c1 (configuration not stated),186
3,CN1CCN(c2cc([N+](=O)[O-])ccc2Cl)CC1,63 to 64
4,CCC1Oc2ccc(C(C)C(=O)O)cc2C(=O)C1C (configuration not stated),114 to 115
5,O=C(CCCCCOc1ccc2c(c1)[nH]c1ccccc12)NO,192
6,CCC1(CC)COC(=O)N1c1nc(-c2ccc(C#N)cc2)c(F)s1,151 to 153
7,O=C(Nc1ccc(F)cn1)c1cc(-c2ccc(Cl)c(Cl)c2)nc2ccccc12,204 to 205
8,COc1cccc(S(=O)(=O)c2ccc(C)nc2Nc2c(C)cc(C)cc2C)c1,87 to 88
9,CC(C)c1ccc(NC(=N)c2cccc(NC(=O)C=Cc3ccccc3Cl)c2)cc1,112 to 118
10,O=C(O)c1ccccc1N1C(=O)c2cccc([N+](=O)[O-])c2C1=O,190 to 192
11,CC(=O)c1c(C)c(NC(=O)CC(C)(C)C)c(C)c2c1SCC2c1ccc(C(C)C)cc1 (configuration not stated),218 to 219
12,CCCCNS(=O)(=O)c1cc(C(=O)O)cc(N)c1Sc1ccc(NC(C)=O)cc1,228 to 229
13,COc1cc(-n2nc3ccc(Cl)cn3c2=O)c(F)cc1N,138 to 140
14,CC(=O)Nc1c(C(N)=O)nnn1Cc1ccccc1Cl,140 to 142
15,Nc1cc(=O)n(Cc2ccccc2[N+](=O)[O-])[nH]1,190
16,CCC(=O)N1N=C(c2ccc(N)cc2)c2cc(C)ccc2CC1C (configuration not stated),166 to 168
17,CS(=O)(=O)N1CCN([C@@H](CNS(=O)(=O)c2ccc(OCc3ccnc4ccccc34)cc2)C(=O)NO)CC1,180
18,CCCCCCCCCCCCCCCCSCC(CNS(=O)(=O)CCCCl)NC(=O)OC (configuration not stated),67 to 69
19,O=C(NCc1ccccc1)Nc1cc(CNc2ccccc2C(=O)Nc2cccc(C(F)(F)F)c2)ccn1,153
20,CC(Nc1nc(Oc2cccc3sc(N)nc23)cc(-c2ccc(C(F)(F)F)cc2)n1)c1ccc(F)cc1 (configuration not stated),231
21,FC(F)Oc1ccc(-c2nnc(Nc3ccc(Cl)c(Cl)c3)s2)cc1,265 to 266
22,C[Si](C)(C)CCOCn1c(-c2cnn(-c3c(Cl)cc(C(F)(F)F)cc3Cl)n2)nc([N+](=O)[O-])c1Br,126 to 128
23,CC1(C(=O)N2C[C@H](Sc3ccc(OCC(F)(F)F)cc3C(F)(F)F)C[C@H]2C(=O)NC2(C#N)CC2)CC1,66 to 76
24,Cn1c(=O)c2ccccc2n(CCCCCl)c1=O,99 to 100
25,Cc1nc2cc(C)c(CN(C)c3ccc(C(=O)NC(CO)c4cccc([N+](=O)[O-])c4)cc3)cc2c(=O)[nH]1 (configuration not stated),231 to 240

row,Compound,melting point [°C]
1,CS(=O)(=O)Nc1ccc(OCCCN2CCC(OC(c3ccccc3)c3ccccc3)CC2)cc1,41 to 43
2,COP(=S)(OC)SCc1nc2sccn2c(=O)c1Cl,125 to 130
3,CCOC(=O)c1c(Cl)ccc(C(=O)O)c1Cl,168
4,N#Cc1c(N2CCN(C(=O)c3cccs3)CC2)c2cc(F)ccc2n(Cc2ccccc2)c1=O,246
5,CCC(NC(=O)OCc1ccccc1)C(=O)Nc1ccc(-n2nc(C(F)(F)F)cc2C(F)(F)F)cc1 (configuration not stated),158 to 160
6,COC(=O)c1cocc1-n1c(OC)nn(C)c1=O,131 to 133
7,Cc1ncc([N+](=O)[O-])n1CCN(CCCC(C)N(CCn1c([N+](=O)[O-])cnc1C)CCn1c([N+](=O)[O-])cnc1C)CCn1c([N+](=O)[O-])cnc1C (configuration not stated),150 to 151
8,Cn1cc(-c2c(-c3ccccc3F)nn3ccncc23)ccc1=O,193 to 194
9,O=C(NCc1ncc(C(F)(F)F)cc1Cl)c1ccccc1C(F)(F)F,127 to 130
10,COc1ccc(CN(C)CCCc2ccc(NC(=O)c3cccc4c(=O)c5ccccc5[nH]c34)cc2)cc1,155
11,CCOC(=O)n1cc(C#N)c(-c2ccc(F)c(Cl)c2F)c1,132
12,N#Cc1cc(F)cc(-c2cc(N)c3c(c2)C2(CCCCC2)C(=O)N3)c1,241 to 243
13,Cc1ccc2sc3cc(C(=O)O)ccc3c2c1,290 to 291
14,N#CCNSc1ccc(Cl)cc1,74 to 76
15,CCN1C(=O)C(C)(C)C(=O)N(C)c2cc(CN(CCn3ccc4oc(C)cc4c3=O)CCn3ccc4oc(C)cc4c3=O)ccc21,160 to 165
16,CC(=O)c1ccc2c(c1)ncn2-c1cccc(-c2ccccn2)c1,158 to 159
17,O=c1[nH]nc(Cl)cc1Nc1ccc(-c2ccncc2)nn1,263 to 265
18,Fc1ccccc1[C@@H]1Cc2cnc(Nc3cccc(CCN4CCNCC4)c3)nc2-c2ccccc21,165 to 167
19,CC1(C)Oc2cc3nc(S)[nH]c3cc2O1,> 300
20,COc1cc(NC2=C(Cl)C(=O)c3ccccc3C2=O)ccc1S(=O)(=O)Nc1ccccc1C,197 to 200
21,O=C(C1CC=CCC1)C1CCC2C(C=CC3=CCCc4c3n2c2ccncc42)C1 (configuration not stated),156 to 158
22,NC(=S)C1CCCc2c1ncc1c2CCCC1 (configuration not stated),162
23,Cc1ccn2c(C)c(CCc3ccc4nc(N)oc4c3)nc2c1,244 to 246
24,CNc1nc(-c2ccc3c(c2)CCC3)c(-c2cccnc2)s1,169 to 170
25,N#Cc1sc(-c2ccccc2)nc1N,178 to 179

row,Compound,melting point [°C]
1,CC12CCC(=O)C=C1CCC1C2CCC2(C)C(n3ccnn3)=CCC12 (configuration not stated),118 to 120
2,N#Cc1ccnc(Cl)c1Cl,65 to 69
3,NC(=O)N1CCN(C(=O)Cc2ccc(Cl)c(Cl)c2)C(CN2CCCC2)C1 (configuration not stated),206 to 209
4,CCN(CC)CCNc1ccc(C)c2sc3ccc(O)cc3c(=O)c12,254 to 255
5,CCc1nnc(-c2ccc(OC)cc2)n1-c1ccc([N+](=O)[O-])cc1,178
6,CC(C)[Si](Oc1ccc([C@@H](O)[C@@H](C)N2CCC(O)(c3ccccc3)CC2)cc1F)(C(C)C)C(C)C (relative stereo),140 to 141
7,Cc1nc(-c2ccc(Cl)cc2)n(-c2ccc(S(N)(=O)=O)cn2)n1,215 to 217
8,Cc1ccc(-c2nn3cccnc3c2CC(N)=O)cc1,225 to 226
9,CCCc1c(OCCCCCCc2ccc(OCCCC(=O)O)cc2/C=C/C(=O)O)ccc2c1OCCC2=O,140 to 143
10,CCOC(=O)C=Cc1ccc(CCNS(=O)(=O)C=Cc2ccccc2)cc1,102 to 104
11,Cc1ccc(-c2[nH]c(=O)n(C3CCN(Cc4ccccc4C)CC3)c2C)cc1,262
12,N#Cc1ccccc1S(=O)(=O)c1ccc(N)cc1,177 to 179
13,CC(C)(C)c1cc(C(=O)N2CC(O)C2)cc(C(C)(C)C)c1O,185 to 189
14,CC1(C)Oc2ccc(Cl)cc2C12NC(=O)NC2=O (configuration not stated),228 to 229
15,O=C(O)COc1cc(Br)c2oc3ccccc3c(=O)c2c1,219 to 221
16,O=C1c2cc(F)ccc2-n2c1nc1ccccc1c2=O,273 to 276
17,CC(Oc1ncn(-c2ccc(Cl)c(Cl)c2)n1)C(=O)O (configuration not stated),222 to 224
18,CCCCOC(=O)c1cc(OC)c(Cc2cnc(N)nc2N)c(OC)c1,186 to 188
19,CCOC(=O)C1=C(COC2CCN(C)CC2)NC(C)=C(C(=O)OC)C1c1cccc(C(F)(F)F)c1Cl (configuration not stated),180 to 181
20,Cc1ccc(Sc2cncc3sc(C(=O)Nc4ccc(Cl)cc4)cc23)cc1,208 to 211
21,Cc1ccc(NC(=O)C(C)(C)C)c(-c2cncc(Cl)n2)c1,80 to 83
22,CSc1nc(Cl)c2ncccc2n1,120 to 121
